Experiments:
[1] = target: T1, Adenosine receptor A1 (Cavia porcellus) (UniProt P47745); experiment: Positive chronotropic effect on isolated guinea pig right atrium (heart stimulation).; type: functional, tissue-based; details: Cardiac atrium
T1 sequence (whole entry): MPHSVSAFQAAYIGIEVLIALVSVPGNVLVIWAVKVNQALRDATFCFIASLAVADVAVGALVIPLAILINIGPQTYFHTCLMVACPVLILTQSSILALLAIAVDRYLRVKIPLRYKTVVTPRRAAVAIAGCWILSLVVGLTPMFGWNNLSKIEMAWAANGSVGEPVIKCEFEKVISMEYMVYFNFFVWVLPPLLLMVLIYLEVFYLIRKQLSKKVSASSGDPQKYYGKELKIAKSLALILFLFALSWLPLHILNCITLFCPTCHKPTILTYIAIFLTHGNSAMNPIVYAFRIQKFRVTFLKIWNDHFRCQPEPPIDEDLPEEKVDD

Adenosine A2 receptor = Adenosine A2 receptor (Homo sapiens, UniProt P29275+P29274); experiment: Affinity against adenosine A2 receptor in brain membranes by displacement of [3H]CPX; type: cell membranes, Cavia porcellus, Membrane
Adenosine receptor A1 = target: T2, Adenosine receptor A1 (Cavia porcellus, UniProt P47745); experiment: Affinity against adenosine A1 receptor in the brain membranes by the displacement of [3H]CPX.; type: cell membranes, Membrane
T2 sequence (P47745 whole entry): T1 sequence (whole entry)

[2] = Inhibition of c-AMP phosphodiesterase activity in guinea pig tracheal muscle
[3] = Ratio of stimulatory activity in right atrium to relaxant activity in tracheal muscle; type: functional, Cardiac atrium
Adenosine receptor A2a = Adenosine receptor A2a (Cavia porcellus, UniProt P46616); experiment: Affinity against adenosine A2 receptor in the brain membranes measured by the displacement of [3H]-CPX; type: cell membranes, Membrane
Chain of Adenosine receptor A2a (P46616 whole entry): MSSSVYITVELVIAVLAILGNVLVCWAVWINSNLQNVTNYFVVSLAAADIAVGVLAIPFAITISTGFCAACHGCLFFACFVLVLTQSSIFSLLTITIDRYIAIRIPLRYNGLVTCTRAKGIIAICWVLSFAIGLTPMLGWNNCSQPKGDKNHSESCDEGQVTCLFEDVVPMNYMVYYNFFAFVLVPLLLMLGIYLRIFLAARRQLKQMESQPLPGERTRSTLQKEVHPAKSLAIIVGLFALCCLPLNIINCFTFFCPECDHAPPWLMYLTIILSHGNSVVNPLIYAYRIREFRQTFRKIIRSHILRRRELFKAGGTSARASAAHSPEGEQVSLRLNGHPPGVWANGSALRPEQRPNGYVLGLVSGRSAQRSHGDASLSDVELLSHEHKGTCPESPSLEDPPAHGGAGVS

Cavia porcellus [4] = experiment: In vivo positive chronotropic effect on isolated guinea pig right atrium; type: functional, Cardiac atrium
Cavia porcellus [5] = experiment: In vivo reduction of acetylcholine-induced bronchospasm in guinea pigs by intraduodenal dose; type: functional
[6] = Inhibitory activity against c-AMP phosphodiesterase in guinea pig tracheal muscle.

Compound	EC15 [1] [µM]	Ki (Adenosine receptor A1) [µM]	Ki (Adenosine receptor A2a) [µM]	Broncho selectivity [3]	also measured
Cn1c(=O)[nH]c(=O)c2[nH]cnc21 [3-METHYLXANTHINE]	> 100				Ki (Adenosine A2 receptor): 133 µM
CCCn1cnc2c1c(=O)[nH]c(=O)n2CCC	> 100	18.2		>6.3	Ki [2]: 35 µM
CCCn1c(=O)[nH]c(=O)c2c1ncn2C	> 100	90.6			
O=c1[nH]c(=O)c2nc[nH]c2[nH]1	> 100				
CCCn1c(=O)[nH]c(=O)c2nc[nH]c21 [ENPROFYLLINE]	18.3				ED15 (Cavia porcellus [4]): 95.1 mg kg-1 i.d.; ED50 (Cavia porcellus [5]): 25.7 mg/kg
CCCCn1c(=O)c2nc[nH]c2n(CCC)c1=O	29				ED15 (Cavia porcellus [4]): >100 mg kg-1 i.d.; ED50 (Cavia porcellus [5]): 2.87 mg/kg
CCCn1c(=O)n(C)c(=O)c2c1ncn2CC	> 100	14.2			
CCCn1c(=O)c2nc[nH]c2n(C)c1=O	36.2			3.7	Ki [2]: 26 µM
CCCn1c(=O)[nH]c(=O)c2c1ncn2CC	> 100	40.4		12	Ki [6]: 13.2 µM
CCn1c(=O)[nH]c(=O)c2[nH]cnc21	> 100	117			
Cn1c(=O)c2nc[nH]c2n(C)c1=O.O [THEOPHYLLINE]					ED15 (Cavia porcellus [4]): 20.2 mg kg-1 i.d.; ED50 (Cavia porcellus [5]): 23.4 mg/kg
CCCn1c(=O)n(C)c(=O)c2c1ncn2C	45.4	14.5	20.1		
CCn1c(=O)[nH]c2[nH]cnc2c1=O	> 100				
Cn1c(=O)[nH]c2[nH]cnc2c1=O [1-METHYLXANTHINE]	> 100			1.3	Ki [2]: 163 µM
CCCn1c(=O)[nH]c2[nH]cnc2c1=O	> 100				
CCCCn1c(=O)[nH]c(=O)c2[nH]cnc21	17	21.4		2.1	Ki [2]: 32 µM
Cn1c(=O)c2[nH]cnc2n(C)c1=O	62				
CCCCn1c(=O)[nH]c2[nH]cnc2c1=O	> 100				
O=c1[nH]c(=O)c2[nH]cnc2[nH]1 [XANTHINE]		> 200			

Second part, led by results:

EC15 [1] [µM]	Ki (Adenosine receptor A1) [µM]	Ki (Adenosine receptor A2a) [µM]	Compound	Broncho selectivity [3]	also measured
	3.4		CCCn1c(=O)c2[nH]cnc2n(C)c1=O		
	3.3	23.4	CCCn1c(=O)[nH]c2nc[nH]c2c1=O		
45.2	9.4	43.8	CCCn1cnc2c1c(=O)n(C)c(=O)n2CCC	9	Ki [2]: 30.8 µM
	9.8	34	CCn1c(=O)[nH]c2nc[nH]c2c1=O		
20	0.2		CCCn1c(=O)c2nc[nH]c2n(CCC)c1=O		
34	9.8		CCn1c(=O)c2nc[nH]c2n(C)c1=O		
> 100	6		CCCCn1c(=O)c2c(ncn2C)n(CCC)c1=O	71.4	ED15 (Cavia porcellus [4]): >100 mg kg-1 i.d.; ED50 (Cavia porcellus [5]): 2.34 mg/kg; Ki [6]: 30.1 µM
	3	15.4	CCCCn1c(=O)[nH]c2nc[nH]c2c1=O		
	0.02	4.1	CCCCn1c(=O)c2[nH]cnc2n(CCC)c1=O		
> 100	7.3	15.3	CCCCn1cnc2c1c(=O)n(C)c(=O)n2CCC	32.3	Ki [2]: > 200 µM
6.1	1.4	3.9	CCCn1c(=O)n(CC)c(=O)c2[nH]cnc21	4.7	Ki [2]: 24.1 µM
45.8	7.7		CCCn1c(=O)c2c(ncn2C)n(CCC)c1=O		
2.2	1.9	4.8	CCCCn1c(=O)n(C)c(=O)c2[nH]cnc21	1.7	Ki [6]: 10.2 µM
28.5	7.6	25.4	CCn1c(=O)n(C)c(=O)c2[nH]cnc21		
3.3	1.9	8	CCCn1c(=O)n(C)c(=O)c2[nH]cnc21	2.1	Ki [2]: 10.6 µM
90.5	4.3		CCCCn1c(=O)c2nc[nH]c2n(C)c1=O		
> 100	12.1		CCCCn1cnc2c1c(=O)[nH]c(=O)n2CCC	7.1	Ki [2]: 36.5 µM
30	11.8		CCCn1c(=O)n(CC)c(=O)c2c1ncn2C	4	Ki [6]: 19.4 µM
	11.5	67.1	Cn1c(=O)[nH]c2nc[nH]c2c1=O [1-METHYLXANTHINE]		

Source: ChEMBL document CHEMBL1125335 (J Med Chem, 1992)
